# Values quoted from earlier work, collected in patent publication US20090192135A1, “Human Niemann Pick C1-Like 1 Gene (NPC1L1) Polymorphisms and Methods of Use Thereof” (SCHERING CORPORATION, priority 2005, published 2009).
# Target: T1, NPC1L1 (Homo sapiens, UniProt Q9UHC9)
# T1 construct: from tissue; host or cells: small intestine of hypercholesterolemic patients (in vivo, clinical trial)
# T1 sequence (Q9UHC9 22-1332 isoform Q9UHC9-2 limits assumed): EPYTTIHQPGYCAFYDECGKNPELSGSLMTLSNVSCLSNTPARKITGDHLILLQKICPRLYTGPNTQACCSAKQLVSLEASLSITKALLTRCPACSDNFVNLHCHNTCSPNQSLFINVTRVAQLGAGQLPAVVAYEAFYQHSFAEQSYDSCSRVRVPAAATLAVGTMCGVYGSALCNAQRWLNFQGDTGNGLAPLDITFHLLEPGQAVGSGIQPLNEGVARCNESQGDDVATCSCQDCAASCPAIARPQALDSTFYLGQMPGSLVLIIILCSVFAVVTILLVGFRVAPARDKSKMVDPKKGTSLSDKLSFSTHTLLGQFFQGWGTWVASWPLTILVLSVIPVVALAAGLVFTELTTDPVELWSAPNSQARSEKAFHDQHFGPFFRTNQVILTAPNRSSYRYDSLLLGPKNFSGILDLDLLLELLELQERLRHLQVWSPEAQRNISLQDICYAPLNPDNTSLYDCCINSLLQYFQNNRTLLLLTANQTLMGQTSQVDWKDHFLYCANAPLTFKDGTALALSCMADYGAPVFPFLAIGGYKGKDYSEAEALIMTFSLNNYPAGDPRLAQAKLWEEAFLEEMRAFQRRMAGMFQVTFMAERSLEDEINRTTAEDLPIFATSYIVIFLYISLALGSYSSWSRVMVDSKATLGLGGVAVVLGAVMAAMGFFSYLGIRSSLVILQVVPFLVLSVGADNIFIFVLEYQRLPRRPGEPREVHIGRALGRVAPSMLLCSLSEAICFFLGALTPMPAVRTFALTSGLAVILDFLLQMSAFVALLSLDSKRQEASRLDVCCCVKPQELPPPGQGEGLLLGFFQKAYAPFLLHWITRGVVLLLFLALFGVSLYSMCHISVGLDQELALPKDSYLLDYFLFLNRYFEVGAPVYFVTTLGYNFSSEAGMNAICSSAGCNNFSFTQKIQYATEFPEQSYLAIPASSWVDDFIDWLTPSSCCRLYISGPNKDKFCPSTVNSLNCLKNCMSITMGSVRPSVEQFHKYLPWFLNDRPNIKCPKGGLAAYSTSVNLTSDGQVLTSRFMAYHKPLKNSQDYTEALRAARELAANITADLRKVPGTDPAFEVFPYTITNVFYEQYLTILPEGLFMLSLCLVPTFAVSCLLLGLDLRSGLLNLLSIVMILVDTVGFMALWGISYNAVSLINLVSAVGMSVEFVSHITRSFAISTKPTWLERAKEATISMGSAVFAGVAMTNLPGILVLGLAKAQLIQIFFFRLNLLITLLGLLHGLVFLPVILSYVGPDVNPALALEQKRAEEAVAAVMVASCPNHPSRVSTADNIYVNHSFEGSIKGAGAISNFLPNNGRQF
# Settings: cited from earlier work
compound,measurement,setting,value
"O=C1[C@H](CC[C@H](O)c2ccc(F)cc2)[C@@H](c2ccc(O)cc2)N1c1ccc(F)cc1 [ezetimibe, 1-(4-fluorophenyl)-3(R)-[3-(4-fluorophenyl)-3(S)-hydroxypropyl]-4(S)-(4-hydroxyphenyl)-2-azetidinone]",additional LDL-C reduction compared with addition of placebo,"added to ongoing statin therapy, stable dose of statins, EASE",~23%
same,reduction in LDL-C,"ezetimibe group of EASE trial (placebo 2.7%, p<0.001)",25.8%
